What was measured:
[1] = tested on: YAMC (normal colonic epithelial cell line); test: Clonogenic assay for self-renewal (spheroid formation) after 4 Gy IR; assay type: cell-based, Murine; conditions: treatment 24 h post-IR at 10 μM, 100 μM and 1 mM, spheroids counted at end of 192 h
Protocol: (§1) Gamma radiation: YAMC (normal colonic epithelial cell line) were exposed to 4 Gy gamma ionizing radiation (IR) with air pumped into the chamber during exposure. A Gammacell 40 ^137Cs gamma irradiator was used with a dose rate of 0.8 Gy IR per minute. Dosimetry measurements were performed using Fricke Dosimetry systems. Measured absorbance dose was: Central Dose Rate (0.790 Gy/min±2.9%); 3 o'clock position (0.804 Gy/min±3.8%); and 7 o'clock position (0.808 Gy/min±2.7%). The experiments were performed within 6 months of the dosimetry analysis.
Clonogenic assay for self-renewal: Self-renewal is the hallmark for stem cells or stem-like cells. Clonogenic assay or clonal expansion of single cell into spheroids/organoids is the reputed method to analyze cell self-renewal. […] At the end of 192 h, spheroids were counted for quantitative assessment of the number of spheroids formed.
Gamma radiation: YAMC (normal colonic epithelial cell line) were exposed to 4 Gy gamma ionizing radiation (IR) with air pumped into the chamber during exposure. […] Measured absorbance dose was: Central Dose Rate (0.790 Gy/min±2.9%); 3 o'clock position (0.804 Gy/min±3.8%); and 7 o'clock position (0.808 Gy/min±2.7%). […]
Clonogenic assay for self-renewal: Self-renewal is the hallmark for stem cells or stem-like cells. […] At the end of 192 h, spheroids were counted for quantitative assessment of the number of spheroids formed. […]

[2] = tested on: YAMC (normal colonic epithelial cell line); test: Colony forming assay (cell survival) after 4 Gy IR; assay type: cell-based, Murine; conditions: treatment 24 h post-IR at 10 μM, 100 μM and 1 mM, colonies counted at end of 96 h
Protocol: as §1
Colony forming assay: Colony forming assay is universally recognized as the gold standard method for measuring the effects of radiation, chemotherapeutic drugs on cell viability, and cell survival. […] At the end of 96 h, cells were fixed and counted for number of colonies formed. The number of colonies formed represents the number of cells survived.
as §1, with “The experiments were performed within 6 months of the dosimetry analysis.” left out

[3] = largest among ARBs; cited from earlier work
C57BL/6 mice = test: Barrier function study (intestinal epithelial permeability to FITC-dextran) after 14 Gy TBI; assay type: in vivo; conditions: three doses of 10 mg/kg body weight per day beginning 24 h post-IR, serum FITC 5 d post-IR
Protocol: as §1, with “radiation: 7-week-old C57BL/6 mice” for “radiation: YAMC (normal colonic epithelial cell line)”, “to total body irradiation (TBI) 14” for “to 4”, “chamber during.” for “chamber during exposure.”, “analysis. All IR treatments were begun in the morning. […] All animals received easy access to liquid gel food and water in the cage.” for “analysis.”
Barrier function study: Two hours before euthanasia (5 d post-IR), each mouse was orally administered (gavage) with 100 μL of FITC-dextran (FITC dextran 4; MW 4000) at a dose of 80 mg/100 g body weight. Serum analysis of FITC concentration was performed in triplicate using Synergy Bio TEK plate reader.
Gamma radiation: 7-week-old C57BL/6 mice were exposed to total body irradiation (TBI) 14 Gy gamma ionizing radiation (IR) with air pumped into the chamber during. A Gammacell 40 ^137Cs gamma irradiator was used with a dose rate of 0.8 Gy IR per minute. […] Measured absorbance dose was: Central Dose Rate (0.790 Gy/min±2.9%); 3 o'clock position (0.804 Gy/min±3.8%); and 7 o'clock position (0.808 Gy/min±2.7%). […]

| SMILES | self-renewal ability of YAMC cells (number of spheroids formed) compared to vehicle treatment [1] | YAMC cell survival (number of colonies formed) compared to vehicle treatment [2] | volume of distribution [3] [L] | intestinal epithelial permeability to FITC-dextran versus vehicle control (C57BL/6 mice) |
| --- | --- | --- | --- | --- |
| CCCc1nc2c(C)cc(-c3nc4ccccc4n3C)cc2n1Cc1ccc(-c2ccccc2C(=O)O)cc1 [telmisartan, Telmisartan] | significantly increased | significantly increased | 500 | essentially the same |
| CC1(C)CC(O)CC(C)(C)N1[O] [tempol, 4-hydroxy-2,2,6,6-tetramethylpiperidin-1-oxyl] | significantly increased | significantly increased | – | essentially the same |

Reference: US12246011B2, “Radiation mitigator and method of use thereof” (Georgetown University, priority 2016, dated 2025)
